In US9701638B2, “Therapeutic hydroxyquinolones” (RUTGERS, THE STATE UNIVERSITY OF NEW JERSEY, priority 2012, dated 2017):
pIC50: −log10 of the molar value.

What follows are compounds tested against Pandemic 2009 H1N1 influenza A endonuclease (PAN domain, residues 1-204) (Influenza A virus (strain swl A/California/04/2009 H1N1), UniProt C3W5S0) (assay: Endonuclease assay (FAM/MGBNFQ fluorescent probe cleavage by PAN)). Conditions: endonuclease inhibition; 25 nM endonuclease, 50 nM probe, 37 degrees Celsius, fluorescence change over time.
Format: biochemical, influenza A virus (pandemic 2009 H1N1)
Excerpt: A TaqMan-like oligonucleotide was used containing a 6-carboxy-fluorescein (FAM) fluorophore at the 5′-end followed by 19 nucleotides and a minor groove binding non-fluorescent quencher (MGBNFQ, Applied Biosystems) at the 3′-end. When excited by light at a wavelength of 488 nm, MGBNFQ quenches the fluorescence of FAM via fluorescence resonance energy transfer. If the endonuclease cleaves the oligonucleotide, the quencher is no longer coupled to the fluorophore, and therefore, FAM fluoresces. This assay can be performed in a high-throughput (e.g. 96 well plate) format.
The reaction mixture is set up as a master mix with the buffer, probe, and protein on ice. […] Varioskan Fluorometer (Thermo Scientific), set to an excitation of 488 nm and emission of 518 nm, is used to measure the fluorescence of the samples at 37 degrees Celsius. Fluorescence is measured at various time points (5, 120, and 240 minutes) during the 37 degrees Celsius incubation. Activity/inhibition is calculated based on the change in fluorescence over time using Prism Graphpad non-linear regression analysis.

SMILES	pIC50
O=c1[nH]c2ccccc2c(Br)c1O [Example 2, 4-bromo-3-hydroxyquinolin-2(1H)-one]	4.28
O=c1[nH]c2cccc(Br)c2cc1O [Example 3, 5-bromo-3-hydroxyquinolin-2(1H)-one]	4.91
O=c1[nH]c2ccc(Br)cc2cc1O [Example 4, 6-bromo-3-hydroxyquinolin-2(1H)-one]	5.13
O=c1[nH]c2cc(Br)ccc2cc1O [Example 5, 7-bromo-3-hydroxyquinolin-2(1H)-one]	5.12
O=c1[nH]c2c(Br)cccc2cc1O [Example 6, 8-bromo-3-hydroxyquinolin-2(1H)-one]	4.97
O=c1[nH]c2ccccc2c(-c2ccc(F)cc2)c1O [Example 7]	4.97
O=c1[nH]c2cccc(-c3ccc(F)cc3)c2cc1O [Example 8, 5-(4-fluorophenyl)-3-hydroxyquinolin-2(1H)-one]	5.48
O=c1[nH]c2ccc(-c3ccc(F)cc3)cc2cc1O [Example 9, 6-(4-fluorophenyl)-3-hydroxyquinolin-2(1H)-one]	6.25
O=c1[nH]c2cc(-c3ccc(F)cc3)ccc2cc1O [Example 10, 7-(4-fluorophenyl)-3-hydroxyquinolin-2(1H)-one]	6.25
O=c1[nH]c2c(-c3ccc(F)cc3)cccc2cc1O [Example 11, 8-(4-fluorophenyl)-3-hydroxyquinolin-2(1H)-one]	5.33
O=c1[nH]c2cc(-c3ccc(F)cc3)ccc2c(Br)c1O [Example 12, 4-bromo-7-(4-fluorophenyl)-3-hydroxyquinolin-2(1H)-one]	5.96
O=c1[nH]c2ccccc2c(-c2ccccc2)c1O [Example 13, 4-Phenyl-3-hydroxyquinolin-2(1H)-one]	< 4.70
Cc1c(O)c(=O)[nH]c2ccccc12 [Example 14, 4-Methyl-3-hydroxyquinolin-2(1H)— one]	< 4.00
O=c1[nH]c2cc(-c3ccc(F)cc3)ccc2c(-c2ccccc2)c1O [Example 15, 4-Phenyl-7-(4-fluorophenyl)-3-hydroxyquinolin-2(1H)-one]	5.70
Cc1c(O)c(=O)[nH]c2cc(-c3ccc(F)cc3)ccc12 [Example 16]	4.88
